Data: patent US20220304945A1, “METHODS OF TREATING METABOLIC SYNDROME RELATED CONDITIONS USING RETINOIC ACID RECEPTOR AGONISTS” (Cornell University, priority 2014, published 2022)
Entries after “also recorded” stand apart in the source; their conditions may differ.

Experiments:
[1] = tested on: 4-HNE, oxidative stress in the kidneys; experiment: 4-HNE staining of kidney, HF-fed mice; format: in vivo, mouse; conditions: HF diet mice; vs high fat diet group
Text: Mice, diet, and drug treatment. WT male C57/BL6 male mice were maintained on either a standard laboratory chow-fed diet (CFD) with 13% kcal fat, (diet #5053, Lab Diet, Inc, St. Louis, Mo.) or a high fat, western style diet (HFD) with 60% kcals from fat, (diet #58126, Lab Diet, Inc., St. Louis, Mo.) for 4 months. One month after the start of the high fat diet treatment, the high fat diet group was further split into 2 groups for 3 months: i) high fat diet and the drinking water containing 1% DMSO; ii) high fat diet and the drinking water containing 1.5 mg/100 ml AC261066, a specific RARβ agonist. Then mice were sacrificed by cervical dislocation. Blood and various tissue samples were harvested.
4-hydroxynonenal (4-HNE) staining. Paraffin-embedded sections (from two to four mice per group) were deparaffinized and rehydrated, and antigen retrieval was performed using an antigen unmasking solution (Vector Laboratories, H-3300). After quenching endogenous peroxidase with 3% H2O2, the tissue sections were blocked with the blocking reagent (from the M.O.M. kit from Vector Laboratories). Then, tissue sections were incubated with a 4-HNE antibody (1:400; mouse monoclonal antibody; Abcam, ab48506) overnight at 4° C. The sections were then incubated with secondary antibodies (1:200, anti-mouse IgG from the M.O.M kit). […]

RARβ2 = target: T1, RARβ2 (Homo sapiens, UniProt P10826); conditions: as described in Lund et al. 2005; cited from earlier work
T1 sequence (P10826 1-448 isoform P10826-2): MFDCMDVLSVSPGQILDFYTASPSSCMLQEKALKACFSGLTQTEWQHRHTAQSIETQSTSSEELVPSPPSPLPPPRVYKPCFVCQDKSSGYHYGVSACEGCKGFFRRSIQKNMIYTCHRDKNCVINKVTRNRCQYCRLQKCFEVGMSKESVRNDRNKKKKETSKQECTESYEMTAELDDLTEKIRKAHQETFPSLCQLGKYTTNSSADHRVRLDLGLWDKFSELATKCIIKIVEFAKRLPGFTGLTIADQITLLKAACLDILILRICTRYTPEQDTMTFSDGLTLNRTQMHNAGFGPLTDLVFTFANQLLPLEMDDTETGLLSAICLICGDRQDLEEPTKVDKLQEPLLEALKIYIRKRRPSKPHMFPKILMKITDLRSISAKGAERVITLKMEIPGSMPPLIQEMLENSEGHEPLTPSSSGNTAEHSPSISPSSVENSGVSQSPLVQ

[2] = tested on: pancreatic islets (β-cells); experiment: Pancreatic islet size (insulin immunofluorescence) and pancreatic insulin content (ELISA); format: in vivo, mouse; conditions: Ob/Ob and Db/Db models
Procedure: Immunofluorescence and Immunostaining Microscopy-Paraffin embedded pancreatic tissue sections were incubated with antibodies against: insulin (mouse monoclonal 1:300, #1061, Beta Cell Biology Consortium). We utilized Alexa-fluor 488 conjugated anti-mouse secondary antibody (1:500) (Invitrogen, Carlsbad, Calif.) for immunofluorescence labeling of insulin followed by visualization using a Nikon TE2000 inverted fluorescence microscope (Nikon, Inc).
Pancreatic Insulin Measurements-Pancreatic insulin levels were measured in lysates from pancreatic tissues using an ultrasensitive Insulin ELISA Kit (Alpco, Inc. Salem, N.H.) as per the manufacturers' instructions. Insulin concentrations were normalized to pancreatic protein concentrations determined using the DC protein assay (Bio-Rad, Inc. Hercules, Calif.) according to the manufacturers' protocol. Endocrine hormones levels are reported as mean±standard error of the mean (S.E.M) and P-values calculated using one-way analysis of variance followed by Bonferroni multiple comparison test post-hoc analysis.
Measurement of Pancreatic Endocrine Cell Mass.—Pancreatic endocrine cell mass was determined using a direct point counting method as previously described. […]

HFD-fed C57/BL6 mice = experiment: Acute administration (8 days) to HFD-fed mice: body weight, intake, random glucose, GTT, ITT; format: in vivo, mouse
Procedure: FIG. 31. Acute administration of Retinoic Acid Receptor β (RARβ) agonist AC261066 reverses high fat induced glucose intolerance and insulin resistance. A-C) Body weights, water and food intake of wild type C57/B16 male mice after 3 months of being fed either: a standard chow (13% Kcal/fat) diet (Wt Con, n=4), a high fat (45% Kcal/fat) diet (HFD, n=4) or 3 months of a HFD mice plus 8 days of administration of the RARβ agonist AC261066 (n=4) in their drinking water at a dose of 5.4 mg/Kg BW/day. On day 8 mice were tested for glucose intolerance and insulin resistance. D and E) Random glucose and glucose tolerance test (GTT) of mice described in A. F) Insulin tolerance test of mice described in A.
Metabolic Measurements-Glucose tolerance was performed using an intraperitoneal glucose tolerance test (GTT) as previously described (Trasino et al., Vitamin A Deficiency Causes Hyperglycemia and Loss of Pancreatic β-Cell Mass, J Biol Chem. 2014 Dec. 1. pii: jbc.M114.616763). […] Tail vein blood glucose was measured at 20, 40, 60 and 120 minutes after injection using a FreeStyle Lite Blood Glucose Monitoring System (Abbott Diabetes Care, Inc. Alameda, Calif.). To determine insulin secretion responses to glucose, serum fractions were isolated between 0-60 minutes post glucose injections and insulin concentrations were measured using an Ultrasensitive Insulin ELISA Kit (Alpco, Inc. Salem, N.H.). […]

## CCCCOCCOc1nc(-c2ccc(C(=O)O)c(F)c2)sc1C [AC261066]
[1]
  4-HNE level (oxidative stress, ROS) in kidneys: reduces oxidative stress; also recorded: lower
RARβ2
  isoform selectivity for the human RARβ2 receptors: highly isoform-selective agonists
[2]
  pancreatic insulin content: diminishes
[2]; HF-fed mice
  number of large pancreatic islets (enlarged β-cells): diminishes
HFD-fed C57/BL6 mice; after 24 hours of administration
  random glucose levels: significant reductions
HFD-fed C57/BL6 mice; after 8 days of administration
  hyperglycemia (glucose intolerance) and insulin resistance: reverses; also recorded: significant reductions
